Reference: ChEMBL document CHEMBL3525955, “Glucuronidation of the red clover isoflavone irilone by liver microsomes from different species and human UDP-glucuronosyltransferases” (Drug Metab Dispos, 2011)

Key:
[1] = system: Liver microsome; assay: Intrinsic clearance in Sprague-Dawley rat liver microsomes incubated for 5 mins prior to UDPGA addition measured after 90 mins; type: ADME; settings: 1.5 h
[2] = Drug metabolism in pig liver microsomes assessed as substrate inhibition of IRI-O-4'-monoglucuronide formation incubated for 5 mins prior to UDPGA addition measured after 90 mins by Eadie-Hoftsee plot analysis; type: ADME, Sus scrofa
[3] = Intrinsic clearance in pig liver microsomes incubated for 5 mins prior to UDPGA addition measured after 90 mins; type: ADME, Sus scrofa; settings: 1.5 h
[4] = target: T1, UDP-glucuronosyltransferase 1A8 (Homo sapiens, UniProt Q9HAW9); assay: Drug metabolism assessed as human recombinant UGT1A8-mediated irilone-O-4'-monoglucuronide formation at 25 uM incubated for 5 mins prior to UDPGA addition measured after 90 mins by HPLC-DAD analysis; type: ADME; settings: recombinant enzyme, 1.5 h
T1 sequence (Q9HAW9 whole entry): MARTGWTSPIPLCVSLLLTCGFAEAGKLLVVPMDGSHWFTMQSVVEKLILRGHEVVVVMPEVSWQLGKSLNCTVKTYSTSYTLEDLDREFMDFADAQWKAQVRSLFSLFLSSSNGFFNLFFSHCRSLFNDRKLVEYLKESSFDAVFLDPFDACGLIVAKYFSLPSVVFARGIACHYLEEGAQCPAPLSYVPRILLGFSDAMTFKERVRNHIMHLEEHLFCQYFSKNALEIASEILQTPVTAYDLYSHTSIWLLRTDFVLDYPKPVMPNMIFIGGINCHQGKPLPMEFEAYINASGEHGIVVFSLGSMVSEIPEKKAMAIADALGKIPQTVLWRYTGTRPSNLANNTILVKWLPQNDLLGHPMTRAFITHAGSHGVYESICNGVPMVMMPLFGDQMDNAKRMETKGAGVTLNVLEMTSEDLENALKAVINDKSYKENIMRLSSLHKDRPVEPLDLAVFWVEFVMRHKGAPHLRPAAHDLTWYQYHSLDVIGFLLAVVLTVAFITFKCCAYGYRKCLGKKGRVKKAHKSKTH

[5] = target: T1, UDP-glucuronosyltransferase 1A8; assay: Activity of human recombinant UGT1A8 assessed as intrinsic clearance incubated for 5 mins prior to UDPGA addition measured after 90 mins; type: ADME; settings: recombinant enzyme, 1.5 h
[6] = target: T2, UDP-glucuronosyltransferase 1A9 (Homo sapiens, UniProt O60656); assay: Substrate inhibition of human recombinant UGT1A9 assessed as IRI-O-5-monoglucuronide formation incubated for 5 mins prior to UDPGA addition measured after 90 mins by Eadie-Hoftsee plot analysis; type: ADME
T2 sequence (O60656 whole entry): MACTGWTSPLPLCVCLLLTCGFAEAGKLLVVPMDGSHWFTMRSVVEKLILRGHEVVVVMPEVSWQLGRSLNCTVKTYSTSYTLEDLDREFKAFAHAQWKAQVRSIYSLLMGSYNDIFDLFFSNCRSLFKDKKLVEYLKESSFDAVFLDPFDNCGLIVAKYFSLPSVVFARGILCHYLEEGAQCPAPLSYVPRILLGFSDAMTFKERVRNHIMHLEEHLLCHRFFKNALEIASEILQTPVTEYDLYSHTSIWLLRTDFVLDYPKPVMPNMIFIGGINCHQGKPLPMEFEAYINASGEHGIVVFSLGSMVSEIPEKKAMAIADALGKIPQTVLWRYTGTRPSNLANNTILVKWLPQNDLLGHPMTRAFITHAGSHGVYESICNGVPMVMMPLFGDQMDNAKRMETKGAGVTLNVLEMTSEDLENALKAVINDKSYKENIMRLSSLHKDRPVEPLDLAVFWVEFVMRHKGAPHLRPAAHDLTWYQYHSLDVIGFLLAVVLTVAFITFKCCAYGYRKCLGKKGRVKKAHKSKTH

[7] = target: Liver microsome; assay: Drug metabolism in human liver microsomes assessed as substrate inhibition of IRI-O-4'-monoglucuronide formation incubated for 5 mins prior to UDPGA addition measured after 90 mins by Eadie-Hoftsee plot analysis; type: ADME
[8] = target: T3, UDP-glucuronosyltransferase 1A1 (Homo sapiens, UniProt P22309); assay: Substrate inhibition of human recombinant UGT1A1 assessed as IRI-O-4'-monoglucuronide formation incubated for 5 mins prior to UDPGA addition measured after 90 mins by Eadie-Hoftsee plot analysis; type: ADME
T3 sequence (P22309 whole entry): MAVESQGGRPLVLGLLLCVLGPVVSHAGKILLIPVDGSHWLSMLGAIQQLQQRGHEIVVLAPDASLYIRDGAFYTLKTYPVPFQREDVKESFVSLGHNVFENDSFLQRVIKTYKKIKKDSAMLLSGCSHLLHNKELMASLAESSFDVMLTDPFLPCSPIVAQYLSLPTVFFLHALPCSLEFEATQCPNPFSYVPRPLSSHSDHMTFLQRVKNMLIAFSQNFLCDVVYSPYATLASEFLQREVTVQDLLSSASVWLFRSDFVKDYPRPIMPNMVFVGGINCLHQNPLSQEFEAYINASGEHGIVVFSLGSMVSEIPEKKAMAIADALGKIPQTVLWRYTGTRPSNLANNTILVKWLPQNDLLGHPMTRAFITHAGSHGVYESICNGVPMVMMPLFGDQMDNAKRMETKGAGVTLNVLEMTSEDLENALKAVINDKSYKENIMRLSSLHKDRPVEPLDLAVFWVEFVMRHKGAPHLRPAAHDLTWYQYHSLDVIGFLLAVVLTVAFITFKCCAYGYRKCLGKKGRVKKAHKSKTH

[9] = target: T4, UDP-glucuronosyltransferase 1A10 (Homo sapiens, UniProt Q9HAW8); assay: Activity of human recombinant UGT1A10 assessed as intrinsic clearance incubated for 5 mins prior to UDPGA addition measured after 90 mins; type: ADME; settings: recombinant enzyme, 1.5 h
T4 sequence (Q9HAW8 whole entry): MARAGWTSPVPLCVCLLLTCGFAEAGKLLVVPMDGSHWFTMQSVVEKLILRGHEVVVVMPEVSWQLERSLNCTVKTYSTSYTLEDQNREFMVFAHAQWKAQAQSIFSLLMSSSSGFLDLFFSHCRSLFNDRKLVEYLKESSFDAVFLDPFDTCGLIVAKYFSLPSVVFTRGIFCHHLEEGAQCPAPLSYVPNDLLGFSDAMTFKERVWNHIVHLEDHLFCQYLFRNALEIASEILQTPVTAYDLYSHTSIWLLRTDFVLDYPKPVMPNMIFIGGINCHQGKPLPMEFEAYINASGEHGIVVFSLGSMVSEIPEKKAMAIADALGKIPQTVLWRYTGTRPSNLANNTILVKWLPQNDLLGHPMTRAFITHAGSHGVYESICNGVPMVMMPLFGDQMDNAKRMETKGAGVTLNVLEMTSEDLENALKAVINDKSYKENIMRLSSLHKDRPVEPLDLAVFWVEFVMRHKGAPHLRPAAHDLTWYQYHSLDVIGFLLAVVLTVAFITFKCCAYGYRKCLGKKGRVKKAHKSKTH

With `O=c1c(-c2ccc(O)cc2)coc2cc3c(c(O)c12)OCO3` as the compound, how does the CLH [1] read?
The CLH was 51000 µL/min/mg.

What about the Ki [2] of the same compound?
Its Ki is 49.1 µM.

And the CLH [3]?
The CLH was 71800 µL/min/mg.

What about the Drug metabolism [4] of the same compound?
Its Drug metabolism is “metabolite_detected”.

What about the CL [5] of the same compound?
The CL was 20200 µL/min/mg.

What about the Ki [6] of the same compound?
The Ki was 534 µM.

What about the Ki [7] of the same compound?
Its Ki is 50.9 µM.

What about the Ki [8] of the same compound?
The Ki was 14.1 µM.

What about the CL [9] of the same compound?
Its CL is 99900 µL/min/mg.
